{"source": "patent EP0023569A1", "about": "“Derivatives of carboxylic acids, their preparation and medicaments containing them” (Dr. Karl Thomae GmbH, priority 1979, dated 1981)", "tested_on": "weiblichen und männlichen Mäusen", "assay": "Acute toxicity in mice after a single oral dose", "assay_type": "in vivo", "conditions": "observation at least 7 days; for orientierende Toxizität: single dose p.o., suspension in 1% methylcellulose", "from_the_text": "Bei weiblichen und männlichen Mäusen eigener Zucht mit dem Gewicht von 20-26 g wurde die toxische Wirkung der Substanzen nach oraler Gabe (Suspension in 1%iger Methylcellulose) einer einmaligen Dosis bei einer Nachbeobachtungszeit von mindestens 7 Tagen geprüft. Die nachfolgende Tabelle enthält die gefundenen Werte: […]", "key": {"[1]": {"conditions": "single dose of 2 000 mg/kg p.o."}, "[2]": {"conditions": "single dose of 1 000 mg/kg p.o."}}, "data": [{"smiles": "CN(C)c1ccc(Cl)cc1C(=O)NCCc1ccc(C(=O)O)cc1", "note": "[A, 4-[2-(5-Chlor-2-dimethylamino-benzoylamino)-äthyl]benzoe-säure]", "values": [{"measurement": "Tieren gestorben", "setting": "[1]", "value": 0, "unit": "von 6"}, {"measurement": "orientierende Toxizität", "value": "> 2 000 mg/kg"}]}, {"smiles": "CN(C)c1ccc(Br)cc1C(=O)NCCc1ccc(C(=O)O)cc1", "note": "[B, 4-[2-(5-Brom-2-dimethylamino-benzoylamino)-äthyl]benzoesäure]", "values": [{"measurement": "Tieren gestorben", "setting": "[2]", "value": 0, "unit": "von 5"}, {"measurement": "orientierende Toxizität", "value": "> 1 000 mg/kg"}]}, {"smiles": "O=C(O)c1ccc(CCNC(=O)c2cc(Cl)ccc2N2CCCCC2)cc1", "note": "[D, 4-[2-(5-Chlor-2-piperidino-benzoylamino)-äthy]benzoesäure]", "values": [{"measurement": "Tieren gestorben", "setting": "[1]", "value": 0, "unit": "von 6"}, {"measurement": "orientierende Toxizität", "value": "> 2 000 mg/kg"}]}, {"smiles": "COC(=O)c1ccc(CCNC(=O)c2cc(Cl)ccc2N2CC(C)CC(C)C2)cc1", "note": "(centres unmarked) [H, 4-[2-(5-Chlor-2-(3,5-dimethyl-piperidino)-benzoylamino)-äthy]benzoesäure-methylester]", "values": [{"measurement": "Tieren gestorben", "setting": "[2]", "value": 0, "unit": "von 6"}, {"measurement": "orientierende Toxizität", "value": "> 1 000 mg/kg"}]}, {"smiles": "O=C(O)c1cc(Cl)ccc1N1CCC2(CC1)OCCO2", "note": "[KK, 5-Chlor-2-(1,4-dioxa-8-aza-spiro[4,5]decan-8-yl)-benzoe-säure]", "values": [{"measurement": "Tieren gestorben", "setting": "[1]", "value": 0, "unit": "von 10"}, {"measurement": "orientierende Toxizität", "value": "> 2 000 mg/kg"}]}, {"smiles": "O=C(O)c1ccc(CCNC(=O)c2cc(Cl)ccc2N2CCCCCC2)cc1", "note": "[O, 4-[2-(5-Chlor-2-hexamethylenimino-benzoylamino)-äthyl]-benzoesäure]", "values": [{"measurement": "Tieren gestorben", "setting": "[2]", "value": 0, "unit": "von 10"}, {"measurement": "orientierende Toxizität", "value": "> 1 000 mg/kg"}]}, {"smiles": "CC1CN(c2ccc(Cl)cc2C(=O)NCCc2ccc(C(=O)O)cc2)CC(C)O1", "note": "(centres unmarked) [T, 4-[-(5-Chlor-2-(2,6-dimethyl-morpholino)-benzoylamino)-äthyl]benzoesäure]", "values": [{"measurement": "Tieren gestorben", "setting": "[2]", "value": 0, "unit": "von 10"}, {"measurement": "orientierende Toxizität", "value": "> 1 000 mg/kg"}]}, {"smiles": "CCOC(=O)c1ccc(CCNC(=O)c2cc(Br)ccc2N2CCCCCCC2)cc1", "note": "[V, 4-[2-(5-Brom-2-heptamethylenimino-benzoylamino)-äthyl]benzoesäure-äthylester]", "values": [{"measurement": "Tieren gestorben", "setting": "[2]", "value": 0, "unit": "von 10"}, {"measurement": "orientierende Toxizität", "value": "> 1 000 mg/kg"}]}, {"smiles": "O=C(O)c1ccc(CCNC(=O)c2cc(Br)ccc2N2CCCCCCC2)cc1", "note": "[W, 4-[2-(5-Brom-2-heptamethylenimino-benzoylamino)-äthyl]-benzoesäure]", "values": [{"measurement": "Tieren gestorben", "setting": "[2]", "value": 0, "unit": "von 6"}, {"measurement": "orientierende Toxizität", "value": "> 1 000 mg/kg"}]}, {"smiles": "O=C(O)c1ccc(CCNC(=O)c2cc(Cl)ccc2N2CCCCCCCC2)cc1", "note": "[X, 4-[2-(5-Chlor-2-octamethylenimino-benzoylamino)-äthyl]-benzoesäure]", "values": [{"measurement": "Tieren gestorben", "setting": "[2]", "value": 0, "unit": "von 6"}, {"measurement": "orientierende Toxizität", "value": "> 1 000 mg/kg"}]}]}
